Data reported in the NIST ThermoML archive (doi:10.1016/j.jct.2013.12.031).
Numbers after ± are expanded uncertainties.

Settings: Crystal; visual observation

**Q.** With `Cc1ccc(S(=O)(=O)[O-])cc1.c1ccc2sc[nH+]c2c1` [benzothiazolium p-toluenesulfonate] as the compound, how does the Normal melting temperature read?
**A.** The Normal melting temperature was 120.00 ± 0.5 °C.
